Measured values published in ChEMBL document CHEMBL3860102, “Structure-Cytotoxicity Relationships of Analogues of N14-Desacetoxytubulysin H” (J Med Chem, 2016).

Columns and labels:
[1] = Cytotoxicity against human DU145 cells incubated for 72 hrs by alamar blue abased assay; format: functional; settings: DU-145, 72 h
[2] = Cytotoxicity against human HCT116 cells incubated for 72 hrs by alamar blue abased assay; format: functional; settings: HCT-116, 72 h
[3] = Cytotoxicity against human MDA-MB-231 cells incubated for 72 hrs by alamar blue abased assay; format: functional; settings: MDA-MB-231, 72 h
[4] = Cytotoxicity against human T98 cells; format: functional, cell-based
[5] = Cytotoxicity against human SW480 cells; format: functional, cell-based
[6] = Cytotoxicity against mouse L929 cells; format: functional, cell-based
[7] = Cytotoxicity against human KB-3-1 cells; format: functional, cell-based

Row | SMILES | GI50 [1] | GI50 [2] | GI50 [3] | IC50 [4] | IC50 [5] | IC50 [6] | IC50 [7]
1 | CC[C@H](C)[C@H](NC(=O)C1(C)CCCCN1C)C(=O)N(C)[C@H](C[C@@H](OC(C)=O)c1nc(C(=O)N[C@@H](Cc2ccccc2)C[C@H](C)C(=O)O)cs1)C(C)C (some centres undefined) | 1.2 nM | – | – | – | – | – | –
2 | CC[C@H](C)[C@H](NC(=O)[C@H]1CCCCN1C)C(=O)N(C)[C@H](C[C@@H](O)c1nc(C(=O)N[C@@H](Cc2ccccc2)C[C@H](C)C(=O)O)cs1)C(C)C | 363 nM | 110 nM | 169 nM | – | – | – | –
3 | CC[C@H](C)[C@H](NC(=O)[C@H]1COCCN1)C(=O)N(C)[C@H](C[C@@H](OC(C)=O)c1nc(C(=O)N[C@@H](Cc2ccccc2)C[C@H](C)C(=O)O)cs1)C(C)C | 2280 nM | 1380 nM | > 3330 nM | – | – | – | –
4 | CC[C@H](C)[C@H](NC(=O)[C@H]1CCCCN1C)C(=O)N(C)[C@H](C[C@@H](OC(C)=O)c1nc(C(=O)N[C@@H](Cc2ccccc2)C[C@H](C)C(=O)NN)cs1)C(C)C | 6.63 nM | 6.09 nM | 5.24 nM | – | – | – | –
5 | CC[C@H](C)[C@H](NC(=O)[C@H]1CC2CCN1CC2)C(=O)N(C)[C@H](C[C@@H](OC(C)=O)c1nc(C(=O)N[C@@H](Cc2ccccc2)C[C@H](C)C(=O)O)cs1)C(C)C | 428 nM | 214 nM | 196 nM | – | – | – | –
6 | CC[C@H](C)[C@H](NC(=O)[C@H]1CSCN1C)C(=O)N(C)[C@H](C[C@@H](OC(C)=O)c1nc(C(=O)N[C@@H](Cc2ccccc2)C[C@H](C)C(=O)O)cs1)C(C)C | 1120 nM | 352 nM | 816 nM | – | – | – | –
7 | CC[C@H](C)[C@H](NC(=O)[C@H]1CCCCN1C)C(=O)N(C)[C@H](C[C@@H](OC(C)=O)c1nc(C(=O)N[C@@H](Cc2ccccc2)C[C@H](C)C(=O)O)cs1)C(C)C | 0.71 nM | 0.62 nM | 1.14 nM | 1.6 nM | 0.02 nM | 0.34 nM | 0.19 nM
8 | CC[C@H](C)[C@H](NC(=O)[C@H]1CCCCN1C)C(=O)N(C)[C@H](C[C@@H](OC(C)=O)c1nc(C(=O)N[C@H](CN)Cc2ccccc2)cs1)C(C)C | 2.7 nM | 5.9 nM | 9 nM | – | – | – | –
9 | CC[C@H](C)[C@H](NC(=O)[C@@H](C(C)C)N(C)CC)C(=O)N(C)[C@H](C[C@@H](OC(C)=O)c1nc(C(=O)N[C@@H](Cc2ccccc2)C[C@H](C)C(=O)O)cs1)C(C)C | 2940 nM | 1640 nM | 3020 nM | – | – | – | –
10 | CC[C@H](C)[C@H](NC(=O)[C@H]1CSCCN1C)C(=O)N(C)[C@H](C[C@@H](OC(C)=O)c1nc(C(=O)N[C@@H](Cc2ccccc2)C[C@H](C)C(=O)O)cs1)C(C)C | 166 nM | 69.3 nM | 226 nM | – | – | – | –
11 | CC[C@H](C)[C@H](NC(=O)[C@H]1C[C@@H](C)CN1C)C(=O)N(C)[C@H](C[C@@H](OC(C)=O)c1nc(C(=O)N[C@@H](Cc2ccccc2)C[C@H](C)C(=O)O)cs1)C(C)C | 1.7 nM | 0.8 nM | 4.2 nM | – | – | – | –
12 | CC[C@H](C)[C@H](NC(=O)[C@@H]1CC(C)(C)CCN1C)C(=O)N(C)[C@H](C[C@@H](OC(C)=O)c1nc(C(=O)N[C@@H](Cc2ccccc2)C[C@H](C)C(=O)O)cs1)C(C)C | 50.6 nM | 88 nM | 118 nM | – | – | – | –
13 | CC[C@H](C)[C@H](NC(=O)[C@H]1CCCN1C)C(=O)N(C)[C@H](C[C@@H](OC(C)=O)c1nc(C(=O)N[C@@H](Cc2ccccc2)C[C@H](C)C(=O)O)cs1)C(C)C | 1 nM | 0.6 nM | 3.3 nM | – | – | – | –
14 | CC[C@H](C)[C@H](NC(=O)[C@@H](C(C)C)N(C)C)C(=O)N(C)[C@H](C[C@@H](OC(C)=O)c1nc(C(=O)N[C@@H](Cc2ccccc2)C[C@H](C)C(=O)O)cs1)C(C)C | 9.6 nM | 4.4 nM | 10.7 nM | – | – | – | –
15 | CC[C@H](C)[C@H](NC(=O)[C@@H](c1ccccc1)N(C)C)C(=O)N(C)[C@H](C[C@@H](OC(C)=O)c1nc(C(=O)N[C@@H](Cc2ccccc2)C[C@H](C)C(=O)O)cs1)C(C)C | 82.3 nM | 52.5 nM | 111 nM | – | – | – | –
16 | CC[C@H](C)[C@H](NC(=O)[C@H]1CC(C)(C)CCN1C)C(=O)N(C)[C@H](C[C@@H](OC(C)=O)c1nc(C(=O)N[C@@H](Cc2ccccc2)C[C@H](C)C(=O)O)cs1)C(C)C | 1.3 nM | 1.8 nM | 3.9 nM | – | – | – | –
17 | CC[C@H](C)[C@H](NC(=O)[C@H]1COCCN1C)C(=O)N(C)[C@H](C[C@@H](OC(C)=O)c1nc(C(=O)N[C@@H](Cc2ccccc2)C[C@H](C)C(=O)O)cs1)C(C)C | 808 nM | 408 nM | 998 nM | – | – | – | –
18 | CC[C@H](C)[C@H](NC(=O)[C@@H](C)N(C)C)C(=O)N(C)[C@H](C[C@@H](OC(C)=O)c1nc(C(=O)N[C@@H](Cc2ccccc2)C[C@H](C)C(=O)O)cs1)C(C)C | 4.5 nM | 2.5 nM | 3.9 nM | – | – | – | –
19 | CC[C@H](C)[C@H](NC(=O)[C@H]1CCSCN1C)C(=O)N(C)[C@H](C[C@@H](OC(C)=O)c1nc(C(=O)N[C@@H](Cc2ccccc2)C[C@H](C)C(=O)O)cs1)C(C)C | 136 nM | 64.2 nM | 125 nM | – | – | – | –
20 | CC[C@H](C)[C@H](NC(=O)[C@H]1C[C@H](C)CCN1C)C(=O)N(C)[C@H](C[C@@H](OC(C)=O)c1nc(C(=O)N[C@@H](Cc2ccccc2)C[C@H](C)C(=O)O)cs1)C(C)C | 0.9 nM | 0.5 nM | 3.4 nM | – | – | – | –
21 | CC[C@H](C)[C@H](NC(=O)[C@H]1CCc2ccccc2N1C)C(=O)N(C)[C@H](C[C@@H](OC(C)=O)c1nc(C(=O)N[C@@H](Cc2ccccc2)C[C@H](C)C(=O)O)cs1)C(C)C | > 3330 nM | > 3330 nM | > 3330 nM | – | – | – | –
22 | CC[C@H](C)[C@H](NC(=O)[C@@H](CC(C)C)N(C)C)C(=O)N(C)[C@H](C[C@@H](OC(C)=O)c1nc(C(=O)N[C@@H](Cc2ccccc2)C[C@H](C)C(=O)O)cs1)C(C)C | 17 nM | 8.2 nM | 19.1 nM | – | – | – | –
23 | CC[C@H](C)[C@H](NC(=O)[C@H]1CCCCN1)C(=O)N(C)[C@H](C[C@@H](OC(C)=O)c1nc(C(=O)N[C@@H](Cc2ccccc2)C[C@H](C)C(=O)OC)cs1)C(C)C | 11.5 nM | 3.68 nM | 9.39 nM | – | – | – | –
24 | CC[C@H](C)[C@H](NC(=O)[C@H]1CCCCN1CCN)C(=O)N(C)[C@H](C[C@@H](OC(C)=O)c1nc(C(=O)N[C@@H](Cc2ccccc2)C[C@H](C)C(=O)O)cs1)C(C)C | 176 nM | 174 nM | 243 nM | – | – | – | –
25 | CC[C@H](C)[C@H](NC(=O)[C@H]1CCCCN1C)C(=O)N(C)[C@H](C[C@@H](OC(C)=O)c1nc(C(=O)N[C@@H](Cc2ccccc2)C[C@H](C)C(N)=O)cs1)C(C)C | 0.948 nM | 0.737 nM | 1.06 nM | – | – | – | –
26 | CC[C@H](C)[C@H](NC(=O)[C@H]1CCCCN1C(C)=O)C(=O)N(C)[C@H](C[C@@H](OC(C)=O)c1nc(C(=O)N[C@@H](Cc2ccccc2)C[C@H](C)C(=O)O)cs1)C(C)C | > 3330 nM | 798 nM | > 3330 nM | – | – | – | –
27 | CC[C@H](C)[C@H](NC(=O)[C@@H](Cc1ccccc1)N(C)C)C(=O)N(C)[C@H](C[C@@H](OC(C)=O)c1nc(C(=O)N[C@@H](Cc2ccccc2)C[C@H](C)C(=O)O)cs1)C(C)C | 134 nM | 103 nM | 225 nM | – | – | – | –
28 | CC[C@H](C)[C@H](NC(=O)[C@H]1CCCCN1)C(=O)N(C)[C@H](C[C@@H](OC(C)=O)c1nc(C(=O)N[C@@H](Cc2ccccc2)C[C@H](C)C(=O)O)cs1)C(C)C | 46.2 nM | 21.3 nM | 19.6 nM | – | – | – | –
29 | CCCN(C)[C@@H](C(=O)N[C@H](C(=O)N(C)[C@H](C[C@@H](OC(C)=O)c1nc(C(=O)N[C@@H](Cc2ccccc2)C[C@H](C)C(=O)O)cs1)C(C)C)[C@@H](C)CC)C(C)C | > 3330 nM | > 3330 nM | > 3330 nM | – | – | – | –
